Results from patent publication US6355799B1, “Substituted benzene compounds, process for their preparation, and herbicidal and defoliant compositions containing them” (ISK Americas Incorporated, priority 1997, dated 2002).

Key:
Type in all cases: in vivo
[1] = tested on: field corn (Zea mays L., var. Dekalb 535, CORN); test: Pre-emerge test, crop safety; conditions: crop damage, pre-emerge, phytotoxicity rating 0-100 at 14 days after application
Method in brief: (§1)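 Sandy loam pots; pre-emerge: sown 1 d pre-spray, surface-watered after, then bottom-watered. Post-emerge: sown 8–21 d before, 2–3 leaf stage, + 0.25% v/v NIS, bottom-watered. Acetone, 187 l/ha track spray, 15–1000 g ai/ha. 0–100 injury score, day 14.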

[2] = tested on: upland rice (Oryza sp., var. Tebonnet, RICE); test: Pre-emerge test, crop safety; conditions: crop damage, pre-emerge, phytotoxicity rating 0-100 at 14 days after application
Method in brief: as §1

[3] = tested on: barnyardgrass (Echinochloa crus-galli, ECHCG); test: Pre-emerge test, greenhouse herbicide activity screening; conditions: pre-emerge; for Pre-emerge Herbicidal Activity ECHCG: phytotoxicity rating 0-100 at 14 days after application; for Pre-emerge Herbicidal Activity ECHCG (phytotoxicity rating, scale 0-100): rated 14 days after application, 0 = no damage, 100 = complete death; for phytotoxicity rating ECHCG: 14 days after application, rating scale 0-100
Method in brief: (§2)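 Compounds in acetone were track-sprayed at 15-1000 g ai/ha (187 l/ha) on sandy loam pots: pre-emerge one day after seeding, post-emerge at 2-3 leaf stage with 0.25% v/v non-ionic surfactant. Phytotoxicity was rated 14 days later on a 0 (no damage) to 100 (complete death) scale.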

[4] = tested on: ivyleaf morningglory (Ipomoea hederacea, IPOHE); test: as above; conditions: pre-emerge; for Pre-emerge Herbicidal Activity IPOHE: phytotoxicity rating 0-100 at 14 days after application; for Pre-emerge Herbicidal Activity IPOHE (phytotoxicity rating, scale 0-100): rated 14 days after application, 0 = no damage, 100 = complete death; for phytotoxicity rating IPOHE: 14 days after application, rating scale 0-100
Method in brief: as §2

[5] = tested on: large crabgrass (Digitaria sanguinalis, DIGSA); test: as above; conditions: pre-emerge; for Pre-emerge Herbicidal Activity DIGSA: phytotoxicity rating 0-100 at 14 days after application; for Pre-emerge Herbicidal Activity DIGSA (phytotoxicity rating, scale 0-100): rated 14 days after application, 0 = no damage, 100 = complete death; for phytotoxicity rating DIGSA: 14 days after application, rating scale 0-100
Method in brief: as §2

[6] = tested on: johnsongrass (Sorghum halepense, SORHA); test: as above; conditions: pre-emerge; for Pre-emerge Herbicidal Activity SORHA: phytotoxicity rating 0-100 at 14 days after application; for Pre-emerge Herbicidal Activity SORHA (phytotoxicity rating, scale 0-100): rated 14 days after application, 0 = no damage, 100 = complete death; for phytotoxicity rating SORHA: 14 days after application, rating scale 0-100
Method in brief: as §2

[7] = tested on: velvetleaf (Abutilon theophrasti, ABUTH); test: as above; conditions: pre-emerge; for Pre-emerge Herbicidal Activity ABUTH: phytotoxicity rating 0-100 at 14 days after application; for Pre-emerge Herbicidal Activity ABUTH (phytotoxicity rating, scale 0-100): rated 14 days after application, 0 = no damage, 100 = complete death; for phytotoxicity rating ABUTH: 14 days after application, rating scale 0-100
Method in brief: as §2

[8] = tested on: sicklepod (Cassia obtusifolia, CASOB); test: as above; conditions: pre-emerge; for Pre-emerge Herbicidal Activity CASOB: phytotoxicity rating 0-100 at 14 days after application; for Pre-emerge Herbicidal Activity CASOB (phytotoxicity rating, scale 0-100): rated 14 days after application, 0 = no damage, 100 = complete death; for phytotoxicity rating CASOB: 14 days after application, rating scale 0-100
Method in brief: as §2

[9] = tested on: green foxtail (Setaria viridis, SETVI); test: as above; conditions: pre-emerge; for Pre-emerge Herbicidal Activity SETVI: phytotoxicity rating 0-100 at 14 days after application; for Pre-emerge Herbicidal Activity SETVI (phytotoxicity rating, scale 0-100): rated 14 days after application, 0 = no damage, 100 = complete death; for phytotoxicity rating SETVI: 14 days after application, rating scale 0-100
Method in brief: as §2

[10] = tested on: lambsquarters (Chenopodium album, CHEAL); test: as above; conditions: pre-emerge; for Pre-emerge Herbicidal Activity CHEAL: phytotoxicity rating 0-100 at 14 days after application; for Pre-emerge Herbicidal Activity CHEAL (phytotoxicity rating, scale 0-100): rated 14 days after application, 0 = no damage, 100 = complete death; for phytotoxicity rating CHEAL: 14 days after application, rating scale 0-100
Method in brief: as §2

[11] = tested on: redroot pigweed (Amaranthus retroflexus, AMARE); test: as above; conditions: pre-emerge; for Pre-emerge Herbicidal Activity AMARE: phytotoxicity rating 0-100 at 14 days after application; for Pre-emerge Herbicidal Activity AMARE (phytotoxicity rating, scale 0-100): rated 14 days after application, 0 = no damage, 100 = complete death; for phytotoxicity rating AMARE: 14 days after application, rating scale 0-100
Method in brief: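 Visual ratings on a 0-100 scale (0 no damage, 100 all plants dead) were taken at 14 days after treatment. Rates of 15-1000 g ai/ha in acetone, 187 l/ha, were sprayed onto soil one day after planting (pre-emerge) or onto 2-3 leaf plants with 0.25% v/v surfactant (post-emerge).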

Row | SMILES | Pre-emerge Herbicidal Activity CORN ([1]; rate 63 g ai/ha) | Pre-emerge Herbicidal Activity CORN ([1]; rate 250 g ai/ha) | Pre-emerge Herbicidal Activity RICE ([2]; rate 63 g ai/ha) | Pre-emerge Herbicidal Activity RICE ([2]; rate 250 g ai/ha) | Pre-emerge Herbicidal Activity ECHCG ([3]; rate 63 g ai/ha) | Pre-emerge Herbicidal Activity ECHCG ([3]; rate 250 g ai/ha) | Pre-emerge Herbicidal Activity IPOHE ([4]; rate 63 g ai/ha) | Pre-emerge Herbicidal Activity IPOHE ([4]; rate 250 g ai/ha) | Pre-emerge Herbicidal Activity DIGSA ([5]; rate 63 g ai/ha) | Pre-emerge Herbicidal Activity DIGSA ([5]; rate 250 g ai/ha) | Pre-emerge Herbicidal Activity SORHA ([6]; rate 63 g ai/ha) | Pre-emerge Herbicidal Activity SORHA ([6]; rate 250 g ai/ha) | Pre-emerge Herbicidal Activity ABUTH ([7]; rate 63 g ai/ha) | Pre-emerge Herbicidal Activity ABUTH ([7]; rate 250 g ai/ha) | Pre-emerge Herbicidal Activity CASOB ([8]; rate 63 g ai/ha) | Pre-emerge Herbicidal Activity CASOB ([8]; rate 250 g ai/ha) | Pre-emerge Herbicidal Activity SETVI ([9]; rate 63 g ai/ha) | Pre-emerge Herbicidal Activity SETVI ([9]; rate 250 g ai/ha) | Pre-emerge Herbicidal Activity CHEAL ([10]; rate 63 g ai/ha) | Pre-emerge Herbicidal Activity CHEAL ([10]; rate 250 g ai/ha) | other results
1 | COc1c(Cl)cc(F)c(-n2nnn(CCCF)c2=O)c1N [Compound 5-3] | 0 | 0 | 20 | 20 | 0 | 20 | 0 | 10 | 30 | 100 | 0 | 95 | 100 | 100 | 0 | 30 | 70 | 100 | 100 | 100 | Pre-emerge Herbicidal Activity AMARE ([11]; rate 63 g ai/ha): 60; Pre-emerge Herbicidal Activity AMARE ([11]; rate 250 g ai/ha): 100
2 | COc1c(Cl)cc(F)c(-n2c(=O)n3n(c2=O)CCCC3)c1N [9-4] | 0 | 0 | 0 | 10 | 0 | 10 | 10 | 50 | 0 | 60 | 0 | 30 | 90 | 100 | 30 | 60 | 0 | 70 | 30 | 80 | Pre-emerge Herbicidal Activity AMARE ([11]; rate 63 g ai/ha): 60; Pre-emerge Herbicidal Activity AMARE ([11]; rate 250 g ai/ha): 100
3 | O=c1cc(C(F)(F)F)[nH]c(=O)n1-c1c(F)cc(Cl)c(O)c1[N+](=O)[O-] [Compound 1-2, 3-(4-chloro-6-fluoro-3-hydroxy-2-nitrophenyl)-6-trifluoromethyl-2,4(1H, 3H)-pyrimidinedione] | – | – | – | – | – | – | – | – | – | – | – | – | – | – | – | – | – | – | – | – | Pre-emerge Herbicidal Activity ECHCG (phytotoxicity rating, scale 0-100) ([3]; 63 g ai/ha): 0; Pre-emerge Herbicidal Activity ECHCG (phytotoxicity rating, scale 0-100) ([3]; 250 g ai/ha): 0; Pre-emerge Herbicidal Activity IPOHE (phytotoxicity rating, scale 0-100) ([4]; 63 g ai/ha): 0; Pre-emerge Herbicidal Activity IPOHE (phytotoxicity rating, scale 0-100) ([4]; 250 g ai/ha): 0; Pre-emerge Herbicidal Activity DIGSA (phytotoxicity rating, scale 0-100) ([5]; 63 g ai/ha): 0; Pre-emerge Herbicidal Activity DIGSA (phytotoxicity rating, scale 0-100) ([5]; 250 g ai/ha): 30; Pre-emerge Herbicidal Activity SORHA (phytotoxicity rating, scale 0-100) ([6]; 63 g ai/ha): 0; Pre-emerge Herbicidal Activity SORHA (phytotoxicity rating, scale 0-100) ([6]; 250 g ai/ha): 0; Pre-emerge Herbicidal Activity ABUTH (phytotoxicity rating, scale 0-100) ([7]; 63 g ai/ha): 50; Pre-emerge Herbicidal Activity ABUTH (phytotoxicity rating, scale 0-100) ([7]; 250 g ai/ha): 10; Pre-emerge Herbicidal Activity CASOB (phytotoxicity rating, scale 0-100) ([8]; 63 g ai/ha): 90; Pre-emerge Herbicidal Activity CASOB (phytotoxicity rating, scale 0-100) ([8]; 250 g ai/ha): 100; Pre-emerge Herbicidal Activity SETVI (phytotoxicity rating, scale 0-100) ([9]; 63 g ai/ha): 20; Pre-emerge Herbicidal Activity SETVI (phytotoxicity rating, scale 0-100) ([9]; 250 g ai/ha): 0; Pre-emerge Herbicidal Activity CHEAL (phytotoxicity rating, scale 0-100) ([10]; 63 g ai/ha): 0; Pre-emerge Herbicidal Activity CHEAL (phytotoxicity rating, scale 0-100) ([10]; 250 g ai/ha): 0; Pre-emerge Herbicidal Activity AMARE (phytotoxicity rating, scale 0-100) ([11]; 63 g ai/ha): 0; Pre-emerge Herbicidal Activity AMARE (phytotoxicity rating, scale 0-100) ([11]; 250 g ai/ha): 0
4 | COc1c(Cl)cc(F)c(-n2c(=O)cc(C(F)(F)F)n(C)c2=O)c1O [Compound 16-6, 3-(4-chloro-6-fluoro-2-hydroxy-3-methoxyphenyl)-1-methyl-6-trifluoromethyl-2,4(1H, 3H)-pyrimidinedione] | – | – | – | – | – | – | – | – | – | – | – | – | – | – | – | – | – | – | – | – | phytotoxicity rating ECHCG ([3]; 63 g ai/ha): 0; phytotoxicity rating ECHCG ([3]; 250 g ai/ha): 50; phytotoxicity rating IPOHE ([4]; 63 g ai/ha): 50; phytotoxicity rating IPOHE ([4]; 250 g ai/ha): 90; phytotoxicity rating DIGSA ([5]; 63 g ai/ha): 0; phytotoxicity rating DIGSA ([5]; 250 g ai/ha): 70; phytotoxicity rating SORHA ([6]; 63 g ai/ha): 0; phytotoxicity rating SORHA ([6]; 250 g ai/ha): 50; phytotoxicity rating ABUTH ([7]; 63 g ai/ha): 90; phytotoxicity rating ABUTH ([7]; 250 g ai/ha): 100; phytotoxicity rating CASOB ([8]; 63 g ai/ha): 50; phytotoxicity rating CASOB ([8]; 250 g ai/ha): 70; phytotoxicity rating SETVI ([9]; 63 g ai/ha): 0; phytotoxicity rating SETVI ([9]; 250 g ai/ha): 40; phytotoxicity rating CHEAL ([10]; 63 g ai/ha): 90; phytotoxicity rating CHEAL ([10]; 250 g ai/ha): 100; phytotoxicity rating AMARE ([11]; 63 g ai/ha): 70; phytotoxicity rating AMARE ([11]; 250 g ai/ha): 100
